These are literature values, as cited in patent US6284262A, “Compact dosage unit for buccal administration of a pharmacologically active agent” (priority 1999, dated 2001).

Data set [1] concerns albumin and other proteins. Particulars: plasma, adult men.
Data set [2] concerns sex hormone-binding protein. Particulars: plasma, adult men.

With `C[C@]12CC[C@H]3[C@@H](CCC4=CC(=O)CC[C@@]43C)[C@@H]1CC[C@@H]2O` [testosterone], the “absorption after oral administration” value is “well absorbed” and the “therapeutic blood levels via oral administration” value is recorded as “not possible to achieve therapeutic blood levels”. The “degradation during passage through the liver and intestine” value (oral) is reported as “quickly degraded”. In data set [1], the “bound to albumin and other proteins” value was “the remainder”; the “free, or unbound testosterone” value is “about 2%”. Besides, in data set [2], the “testosterone bound to sex hormone-binding protein” value was “Approximately 40%”.
